{"source": "the supplement of paper PMC11208160", "data": [{"test": "recombinant UMI read abundance after kanamycin selection (control-corrected) (log10(CPM+1)); higher = more efficient recombination; extreme values may be limits of the assay; sequences stand for … in AGTGCAGAGAAAATCGGCCAGTTTTCTCTGCCTGCAGTCCGCATGCCGTGGGACCCCTTGGGTTCTAACCTGTTGCCTAGATTTATGCAGCGGACTGCCTTTCTCCCAAAGTGATAAACCGG…AGGTTGGTTTCACT; site = the 11-nt donor", "outline": "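In Escherichia coli, a pool of donor and donor-binding-loop pairs, each with a 12-nt UMI, was tested for the IS621 bridge recombinase. Plating was on IPTG (0.07 mM) plus kanamycin, or without selection, in two replicates. Recombinant UMIs were amplified by PCR across the donor–target junction and sequenced, and counts were reported as log10(CPM+1) after averaging and control-derived scaling.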", "values": [{"sequence": "AGGGAGTCATGGACCGGTTTTCCCGGTAATCCGTATTTGCC (site AGGGAGTCTGG)", "recombinant UMI read abundance (log10)": 2.15}, {"sequence": "CGTGGAACATGGACCGGTTTTCCCGGTAATCCGTATTTGTC (site CGTGGAACTCA)", "recombinant UMI read abundance (log10)": 0.0117}, {"sequence": "CGGCTTACATGGACCGGTTTTCCCGGTAATCCGTATTTGTC (site CGGCTTACTGA)", "recombinant UMI read abundance (log10)": 1.65}, {"sequence": "GGCCACCCATGGACCGGTTTTCCCGGTAATCCGTATTTGTA (site GGCCACCCTAA)", "recombinant UMI read abundance (log10)": 0.0187}, {"sequence": "GTCCATGCATGGACCGGTTTTCCCGGTAATCCGTATTTGGT (site GTACATGCTAC)", "recombinant UMI read abundance (log10)": 0.0101}, {"sequence": "GACAAAACATGGACCGGTTTTCCCGGTAATCCGTATTTGGT (site GACAAAGCTAC)", "recombinant UMI read abundance (log10)": 0.517}, {"sequence": "TCCATTCCATGGACCGGTTTTCCCGGTAATCCGTATTTGGA (site TCCATTCCTTC)", "recombinant UMI read abundance (log10)": 0.0134}, {"sequence": "TTTGCTGCATGGACCGGTTTTCCCGGTAATCCGTATTTGTG (site TTTGCTGCTCA)", "recombinant UMI read abundance (log10)": 0.0238}, {"sequence": "CGATCATCATGGACCGGTTTTCCCGGTAATCCGTATTTGCT (site TGATCATCTAG)", "recombinant UMI read abundance (log10)": 0.864}, {"sequence": "CGATCATCATGGACCGGTTTTCCCGGTAATCCGTATTTGCT (site TGATCATCTCG)", "recombinant UMI read abundance (log10)": 0.00793}, {"sequence": "CGGAATCCATGGACCGGTTTTCCCGGTAATCCGTATTTGTT (site CAGTATCCTAA)", "recombinant UMI read abundance (log10)": 0.0125}, {"sequence": "ATCTATACATGGACCGGTTTTCCCGGTAATCCGTATTTGAT (site ATCTATACTCT)", "recombinant UMI read abundance (log10)": 0.147}, {"sequence": "CGGAATCCATGGACCGGTTTTCCCGGTAATCCGTATTTGTG (site CGGAATCCTCA)", "recombinant UMI read abundance (log10)": 0.656}, {"sequence": "CGATCATCATGGACCGGTTTTCCCGGTAATCCGTATTTGCT (site CGATCAACTAC)", "recombinant UMI read abundance (log10)": 0.0107}, {"sequence": "CGTTTGGCATGGACCGGTTTTCCCGGTAATCCGTATTTGCT (site CGTTTAGCTAG)", "recombinant UMI read abundance (log10)": 0}, {"sequence": "GGGAAGACATGGACCGGTTTTCCCGGTAATCCGTATTTGCA (site AGGAAGACTTG)", "recombinant UMI read abundance (log10)": 0.813}, {"sequence": "GTTCGAGCATGGACCGGTTTTCCCGGTAATCCGTATTTGAA (site GTTCGAGCTTA)", "recombinant UMI read abundance (log10)": 0.307}, {"sequence": "CGGAATCCATGGACCGGTTTTCCCGGTAATCCGTATTTGTT (site CGAAATCCTTA)", "recombinant UMI read abundance (log10)": 0.014}, {"sequence": "AATGCAGCATGGACCGGTTTTCCCGGTAATCCGTATTTGGG (site AATGCAGCTCC)", "recombinant UMI read abundance (log10)": 0.00829}, {"sequence": "GGCCACCCATGGACCGGTTTTCCCGGTAATCCGTATTTGTA (site GGCCACCCTGA)", "recombinant UMI read abundance (log10)": 0}, {"sequence": "CTACTACCATGGACCGGTTTTCCCGGTAATCCGTATTTGCT (site CTACTACCTAG)", "recombinant UMI read abundance (log10)": 0.232}, {"sequence": "GGTAAGCCATGGACCGGTTTTCCCGGTAATCCGTATTTGGG (site GGTAAGCCTCC)", "recombinant UMI read abundance (log10)": 0.023}, {"sequence": "GATAAGCCATGGACCGGTTTTCCCGGTAATCCGTATTTGCC (site GATAAGCCTGG)", "recombinant UMI read abundance (log10)": 0}, {"sequence": "CCAGTTGCATGGACCGGTTTTCCCGGTAATCCGTATTTGAT (site CCAGCTGCTAT)", "recombinant UMI read abundance (log10)": 0.249}, {"sequence": "GACAAACCATGGACCGGTTTTCCCGGTAATCCGTATTTGGT (site GACAGACCTAC)", "recombinant UMI read abundance (log10)": 0}, {"sequence": "ATATCTACATGGACCGGTTTTCCCGGTAATCCGTATTTGTG (site AAATCTACTCA)", "recombinant UMI read abundance (log10)": 0.252}, {"sequence": "TATTTGACATGGACCGGTTTTCCCGGTAATCCGTATTTGTG (site TATTTGTCTCA)", "recombinant UMI read abundance (log10)": 0.0134}, {"sequence": "CTAGCAGCATGGACCGGTTTTCCCGGTAATCCGTATTTGAC (site CTAGCAGCTGT)", "recombinant UMI read abundance (log10)": 3.18}, {"sequence": "CGATCATCATGGACCGGTTTTCCCGGTAATCCGTATTTGCT (site CCATTATCTAG)", "recombinant UMI read abundance (log10)": 0}, {"sequence": "AATAAGACATGGACCGGTTTTCCCGGTAATCCGTATTTGAA (site AATAAGACTTT)", "recombinant UMI read abundance (log10)": 1.86}, {"sequence": "AGGTTCTCATGGACCGGTTTTCCCGGTAATCCGTATTTGTG (site AGGTTCACTCA)", "recombinant UMI read abundance (log10)": 0.205}, {"sequence": "ACATCTACATGGACCGGTTTTCCCGGTAATCCGTATTTGTG (site ACATCTACTCC)", "recombinant UMI read abundance (log10)": 0.0178}, {"sequence": "ACGAGTGCATGGACCGGTTTTCCCGGTAATCCGTATTTGGT (site ACAAGTGCTAC)", "recombinant UMI read abundance (log10)": 2.22}, {"sequence": "GCTACTGCATGGACCGGTTTTCCCGGTAATCCGTATTTGCC (site TCTACTGCTGG)", "recombinant UMI read abundance (log10)": 0.424}, {"sequence": "AACCGTCCATGGACCGGTTTTCCCGGTAATCCGTATTTGAT (site AACCGTCCTCT)", "recombinant UMI read abundance (log10)": 0.00582}, {"sequence": "CACACCTCATGGACCGGTTTTCCCGGTAATCCGTATTTGGC (site CACACCTCTGC)", "recombinant UMI read abundance (log10)": 3.07}, {"sequence": "CTCTCTACATGGACCGGTTTTCCCGGTAATCCGTATTTGAG (site CTCACTACTCT)", "recombinant UMI read abundance (log10)": 0.0192}, {"sequence": "ATCCCTACATGGACCGGTTTTCCCGGTAATCCGTATTTGAG (site ATCCCTACTCT)", "recombinant UMI read abundance (log10)": 0.465}]}]}
